From patent US5633255A, “1,2-dihydro-2-oxo-3-aminoquinoxaline derivatives, their preparation and their therapeutic application” (Pierre Fabre Medicament, priority 1992, dated 1997)
≈ marks a conversion by molar mass, not a printed value. Counter-ions that a name gives are not always drawn.

Columns and labels:
[1] = system: trachea (contraction induced by histamine); assay: antagonism of the effect of histamine (contractions of isolated guinea pig trachea); type: cell-based; settings: Cavia porcellus, 5 min, histamine dihydrochloride 10 μg/ml, 5 min contact, 37° C.
Protocol: (§1) To this end, the compounds were studied for their antagonistic effect on the contractions induced by various products according to the following procedure. A piece of trachea from a male three-colored guinea pig weighing 400 g on average is cut into rings and mounted (2.5 cm approximately) in an insulated organ tank which is thermostatted at 37° C. and filled with oxygenated Tyrode's solution. The isometric contractions induced by the various mediators are recorded using a Gould Statham UC2 sensor (Gould Inc. Oxnard, Calif., U.S.A.) or a Palmer Bioscience UF1 sensor connected to a potentiometric recorder ([…], Selb, FRG). At the start of the experiment, the fragment of trachea is subjected to a tension of 1 g and left to stand for 1 hour. The following mediator concentrations are used (concentrations generally inducing a maximum contraction): histamine dihydrochloride, 10 μg/ml; potassium chloride, 1850 μg/ml. The concentrations of agents used result in contractions which become maximal after 5 to 15 min. depending on the mediators and remain at a steady level thereafter. A concentration of the product studied is administered for each contraction and the product is left in contact with the trachea for 5 min. The possible inhibition obtained after this time is measured (percentage of variation in the amplitude of the contraction). The trachea is next washed for 15 seconds and left to stand for 10 min. approximately (time necessary to return to the base tonus) before inducing a new contraction. The water-insoluble products are diluted in 0.178% (v.v) (final bath concentration) dimethyl sulfoxide (DMSO). […] The 50% inhibitory concentrations (IC50) are calculated using an SAS (Statistical Analysis System) program based on the model of Bliss and […] (Bliss C. I. and […]. Biological Assay Ann. Rev. Physiol. 5, 479, 1943).

[2] = system: trachea (contraction induced by potassium chloride); assay: antagonism of the effect of potassium chloride (contractions of isolated guinea pig trachea); type: cell-based; settings: Cavia porcellus, 5 min, potassium chloride 1850 μg/ml, 5 min contact, 37° C.
Protocol: as §1

Zymosan Pleurisy = assay: pleurisy model with Zymosan in rats; type: in vivo, rat (male Sprague Dawley); settings: po; rat, 100 mg/kg p.o. one hour before Zymosan (10 mg intrapleural), exudate measured 1 hour later; read-out: Zymosan Pleurisy volume pleural exudate
Protocol: The compounds of the invention were also tested on the pleurisy model with Zymosan in rats ([…] et al. Pharmacol. Res., 21, 385, 1989) according to the following procedure: 10 mg of Zymosan in a volume of 0.15 ml of sterile 0.9% NaCl are injected into the pleural cavity of male Sprague Dawley rats mildly anesthetized with ether. The animals are sacrificed 1 hour later and the pleural exudate is withdrawn and measured. The animals are kept unfed from the evening before. The products are administered p.o. one hour before injection of the inflammation-inducing agent, at a dose of 100 mg/kg.

SMILES	IC50 [1] [µg/mL]	IC50 [2] [µg/mL]	change in vivo at 100 mg/kg (Zymosan Pleurisy) [%]
CCCn1c(=O)c(N)nc2ccccc21.Cl [Compound 5, 1-n-propyl-1,2-dihydro-2-oxo-3-aminoquinoxaline hydrochloride]	4.6	19.3	-21
CCCn1c(=O)c(NC)nc2ccccc21.Cl [Compound 6, 1-n-propyl-1,2-dihydro-2-oxo-3-methylaminoquinoxaline hydrochloride]	6.4	4.7	-27
CCCn1c(=O)c(N(C)C)nc2ccccc21.Cl [Compound 7, 1-n-propyl-1,2-dihydro-2-oxo-3-dimethylaminoquinoxaline hydrochloride]	10.7	28	-44
CCCCn1c(=O)c(N)nc2ccccc21 [Compound 8]	1.7 (≈ 7.82 µM)	9.6 (≈ 44.2 µM)	4
CCCCn1c(=O)c(NC)nc2ccccc21 [Compound 9]	0.55 (≈ 2.38 µM)	11.1 (≈ 48 µM)	-29
CCCCn1c(=O)c(N(C)C)nc2ccccc21 [Compound 10]	5.7 (≈ 23.2 µM)	45 (≈ 183 µM)	-47
C=CCn1c(=O)c(N)nc2ccccc21 [Compound 11]	5.9 (≈ 29.3 µM)	21 (≈ 104 µM)	-33
C=CCn1c(=O)c(NC)nc2ccccc21 [Compound 12]	1.1 (≈ 5.11 µM)	9.1 (≈ 42.3 µM)	-31
C=CCn1c(=O)c(N(C)C)nc2ccccc21 [Compound 13]	8.6 (≈ 37.5 µM)	19.3 (≈ 84.2 µM)	-43
CC(C)=CCn1c(=O)c(N)nc2ccccc21 [Compound 14, hydrochloride]	2.6	7.4	-14
CNc1nc2ccccc2n(CC=C(C)C)c1=O [Compound 15]	0.65 (≈ 2.67 µM)		-5
CC(C)=CCn1c(=O)c(N(C)C)nc2ccccc21 [Compound 16]	13.5 (≈ 52.5 µM)		
CC(C)(O)CCn1c(=O)c(N)nc2ccccc21 [Compound 17, 1-(3-methyl-3-hydroxy)butyl-1,2-dihydro-2-oxo-3-aminoquinoxaline hydrochloride]	23	45	
Cn1c(=O)c2[nH]cnc2n(C)c1=O [Theophylline, reference compound]	30 (≈ 167 µM)	30 (≈ 167 µM)	
